The test system of data set [1] is DNBS-Induced Inflammatory Bowel Disease Models in Rats. Description: Biological Example 3: DNBS-induced inflammatory bowel disease models in rats. Particulars: 30 mg/Kg i.g. qd × 7; for Adhesion Degree of Colon / Colon weight to length ratio / Inhibitory rate of colon adhesion / Inhibitory rate of ulcer area of colon / Inhibitory rate of weight increase per length / Ulcer area of colon: day 7; for Body weight: Mean ± SD. It is filed as in vivo, Wistar rats. The protocol: 102 male Wistar rats were fasted for 40 hours. A 5% glucose injection (10 mL/Kg) was administered subcutaneously during fasting. 72 rats with normal conditions and moderate body weight were selected from the fasting rats. The animals were randomly divided into 9 groups according to the body weight (see Table 9. Grouped Table).
(§1) The animals were anesthetized with ether after 40 hours fasting. A specially made gavage device was slowly inserted into the enteric cavity at 8 cm from the anus. The model control group and each test group were administered with 0.5 mL of 50 mg/mL DNBS in 30% ethanol solution. The normal control group was administered with 0.5 mL of 30% ethanol solution. The animals were inverted in anesthesia for 15 minutes. The day when the model was prepared was day 0 of the experiment. After 4 hours of DNBS induction, the corresponding drug or the corresponding volume of 1% CMC-Na was administered once per day. On day 7 of the experiment, the animals were euthanized to score the colon adhesion degree, measure the length of colon and ulcer area, weigh colon and calculate the colon weight to length ratio.
(§2) One-way ANOVA analysis of the length of colon and colon weight per length of rats was performed by SPSS22. Statistical analyses between groups were performed. The adhesion degree was scored. Mann-Whitney U non-parametric test was performed on ulcer area. Statistical analyses between groups were performed.
(§3) Calculation Formula of Inhibitory rate of weight increase per length: (Colon weight to length ratio in model group−Colon weight to length ratio in administration group)/(Colon weight to length ratio in model group−Colon weight to length ratio in blank group)

The next data set deals with mice. Description: Biological Example 5: acute toxicity experiment of single oral administration in mice. Format: in vivo. The conditions noted are these: single oral 1000 mg/Kg, Mean ± SD. Summed up: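 Fasted ICR mice (19-21 g, three females and three males per group) received a single oral dose of 1000 mg/Kg, given first to one mouse of each sex and then to the remaining four. Behaviour, nervous and autonomic signs, and deaths were recorded over 0-15 min. Animals were then observed for 7 days with daily body weight.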

The subject of data set [2] is DNBS-Induced Inflammatory Bowel Disease Models in Rats. The data set is described as follows: Biological Example 4: DNBS-induced inflammatory bowel disease models in rats. It is filed as in vivo, Wistar rats. Particulars: 30 mg/Kg i.g. qd × 7; for Adhesion Degree of Colon / Colon weight to length ratio / Ulcer area of colon / inhibition in vivo at 30 mg/kg: day 7; for Body weight: Mean ± SD; for inhibition in vivo at 30 mg/kg: Rattus norvegicus, po, 168 h. The protocol: 102 male Wistar rats were fasted for 72 hours. A 5% glucose injection was administered subcutaneously twice during fasting. 88 rats with normal conditions and moderate body weight were selected from the fasting rats. The animals were randomly divided into 11 groups according to the body weight (see Table 11. Grouped Table).
as §1, with “72” for “40”
as §2, §3

Where [3] appears, read: read-out: Inhibitory rate of colon adhesion.
Setting [4] is: read-out: Inhibitory rate of ulcer area of colon.
[5] abbreviates: read-out: Inhibitory rate of weight increase per length.

Where two headings read alike, the source gives them in different places. Marks after values point to notes of the source that are not given here.

With `COCCN1C(=O)CCC(N2C(=O)c3ccc(N)cc3C2=O)C1=O` (stereo not drawn) [Example 7, 5-amino-2-(1-(2-methoxyethyl)-2,6-dioxopiperidin-3-yl)isoindolin-1,3-dione], the “Adhesion Degree of Colon” value in data set [1] was 0.9 ± 0.8 point. For the same compound, the “Colon weight to length ratio” value in data set [1] is 127 ± 52 mg/cm. In addition, the “Inhibitory rate of colon adhesion” value in data set [1] was 47.1# %. For the same compound, the “Inhibitory rate of ulcer area of colon” value in data set [1] amounted to 75.1%. In data set [1], the “Inhibitory rate of weight increase per length” value was determined as 35.4%. Besides, in data set [1], the “Ulcer area of colon” value is 0.77 ± 1.05 cm^2. Besides, the Body weight in data set [1] (Day 0) stood at 136.1 ± 2.5 g; in data set [1] (Day 1) it was 136.7 ± 3.7 g; in data set [1] (Day 2), 137.0 ± 8.7 g; in data set [1] (Day 3), 141.6 ± 11.9 g; in data set [1] (Day 4), 148.2 ± 12.7 g; in data set [1] (Day 5) it was 159.2 ± 13.2 g. Also, the Body weight in data set [1] (Day 6) is 168.0 ± 15.7 g; in data set [1] (Day 7), 173.5 ± 18.5 g.

Turning to `COCCCN1C(=O)CCC(N2C(=O)c3cccc(NC(C)=O)c3C2=O)C1=O` (stereo not drawn) [Example 16, 4-acetylamino-2-(1-(3-methoxypropyl)-2,6-dioxopiperidin-3-yl)isoindolin-1,3-dione], the “Adhesion Degree of Colon” value in data set [1] was 1.1 ± 0.8 point. The “Colon weight to length ratio” value in data set [1] stood at 114 ± 23 mg/cm. For the same compound, in data set [1], the “Inhibitory rate of colon adhesion” value was determined as 35.3%. The “Inhibitory rate of ulcer area of colon” value in data set [1] is given as 72.8# %. In addition, in data set [1], the “Inhibitory rate of weight increase per length” value is listed as 51.9# %. Besides, the “Ulcer area of colon” value in data set [1] is listed as 0.84 ± 1.25# cm^2. Further, the Body weight in data set [1] (Day 0) worked out at 137.3 ± 1.7 g; in data set [1] (Day 1), 135.9 ± 3.7 g; in data set [1] (Day 2), 137.6 ± 7.0 g; in data set [1] (Day 3), 145.0 ± 9.2 g; in data set [1] (Day 4), 155.2 ± 10.9 g; in data set [1] (Day 5) it was 166.8 ± 10.2 g. The Body weight was determined as 171.5 ± 15.1 g in data set [1] (Day 6) and 184.3 ± 13.8 g in data set [1] (Day 7).

Turning to `COCCN1C(=O)CCC(N2C(=O)c3ccc(F)cc3C2=O)C1=O` (stereo not drawn) [Example 21, 5-fluoro-2-(1-(2-methoxyethyl)-2,6-dioxopiperidin-3-yl)-isoindolin-1,3-dione], the “Adhesion Degree of Colon” value in data set [1] was 0.9 ± 0.7 point. In addition, in data set [1], the “Colon weight to length ratio” value is 104 ± 17 mg/cm. Also, the “Inhibitory rate of colon adhesion” value in data set [1] was 47.1# %. Moreover, the “Inhibitory rate of ulcer area of colon” value in data set [1] is 70.0%. Further, the “Inhibitory rate of weight increase per length” value in data set [1] is recorded as 64.6## %. The “Ulcer area of colon” value in data set [1] was 0.93 ± 1.52 cm^2. In addition, the Body weight was found to be 135.6 ± 6.9 g in data set [1] (Day 0); 134.4 ± 6.8 g in data set [1] (Day 1); 133.9 ± 6.8 g in data set [1] (Day 2); 138.7 ± 6.8 g in data set [1] (Day 3); 146.4 ± 6.9 g in data set [1] (Day 4); 157.9 ± 8.9 g in data set [1] (Day 5). Moreover, the Body weight in data set [1] (Day 6) came out at 168.3 ± 4.6 g; in data set [1] (Day 7), 173.5 ± 7.4 g.

Consider `COCCN1C(=O)CCC(N2C(=O)c3cccc(O)c3C2=O)C1=O` (stereo not drawn) [Example 23, 4-hydroxy-2-(1-(2-methoxyethyl)-2,6-dioxopiperidin-3-yl)isoindolin-1,3-dione], for which the “Daily Body Weight” value was determined as 19.1 ± 0.6 g in the data set with mice (Female mice, Day 1); 22.4 ± 0.4 g in the data set on mice (Female mice, Day 2); 23.0 ± 0.1 g in the data set with mice (Female mice, Day 3); 23.0 ± 0.1 g with mice (Female mice, Day 4); 24.6 ± 0.4 g in the data set with mice (Female mice, Day 5); 24.8 ± 0.7 g in the data set with mice (Female mice, Day 6). Moreover, the “Daily Body Weight” value in the data set on mice (Female mice, Day 7) came to 24.6 ± 0.4 g; in the data set with mice (Male mice, Day 1) it was 19.4 ± 0.8 g; in the data set with mice (Male mice, Day 2), 24.6 ± 1.2 g; with mice (Male mice, Day 3), 24.5 ± 0.6 g; in the data set with mice (Male mice, Day 4), 24.5 ± 0.6 g; in the data set on mice (Male mice, Day 5) it was 25.4 ± 1.2 g. Besides, the “Daily Body Weight” value is recorded as 28.1 ± 0.8 g in the data set on mice (Male mice, Day 6) and 29.0 ± 0.8 g in the data set on mice (Male mice, Day 7). Besides, the “Adhesion Degree of Colon” value in data set [2] is 0.8 ± 0.7 point. The “Colon weight to length ratio” value in data set [2] turned out to be 105 ± 12 mg/cm. Besides, in data set [2], the “Ulcer area of colon” value was 0.2 ± 0.3# cm^2. Besides, the Body weight came to 126.6 ± 8.5 g in data set [2] (Day 1); 123.2 ± 9.0 g in data set [2] (Day 2); 123.9 ± 7.6 g in data set [2] (Day 3); 136.5 ± 11.8 g in data set [2] (Day 4); 148.1 ± 14.5 g in data set [2] (Day 5); 152.1 ± 15.9 g in data set [2] (Day 6). The compound also came in with a Body weight in data set [2] (Day 7) of 166.8 ± 12.8 g. For the same compound, the inhibition in vivo at 30 mg/kg in data set [2] (setting [3]) turned out to be 62.2%; in data set [2] (setting [4]), 91.7%; in data set [2] (setting [5]), 67.1%.

Consider `COCCN1C(=O)CCC(N2C(=O)c3cccc(C)c3C2=O)C1=O` (stereo not drawn) [Example 24, 4-methyl-2-(1-(2-methoxyethyl)-2,6-dioxopiperidin-3-yl)-isoindolin-1,3-dione], for which the “Daily Body Weight” value is listed as 18.4 ± 0.7 g in the data set on mice (Female mice, Day 1); 22.4 ± 1.0 g in the data set with mice (Female mice, Day 2); 23.4 ± 1.0 g in the data set with mice (Female mice, Day 3); 23.6 ± 0.9 g in the data set with mice (Female mice, Day 4); 24.3 ± 0.6 g in the data set with mice (Female mice, Day 5); 24.7 ± 0.6 g in the data set with mice (Female mice, Day 6). Moreover, the “Daily Body Weight” value worked out at 24.8 ± 1.5 g with mice (Female mice, Day 7); 17.7 ± 0.2 g in the data set on mice (Male mice, Day 1); 22.3 ± 0.7 g with mice (Male mice, Day 2); 24.5 ± 1.0 g in the data set with mice (Male mice, Day 3); 25.2 ± 1.0 g in the data set on mice (Male mice, Day 4); 27.2 ± 1.3 g in the data set on mice (Male mice, Day 5). For the same compound, the “Daily Body Weight” value with mice (Male mice, Day 6) was found to be 28.1 ± 2.0 g; in the data set on mice (Male mice, Day 7), 28.9 ± 1.9 g. Moreover, in data set [2], the “Adhesion Degree of Colon” value is on record as 0.8 ± 0.7 point. In data set [2], the “Colon weight to length ratio” value worked out at 99 ± 18 mg/cm. In addition, in data set [2], the “Ulcer area of colon” value is 0.3 ± 0.3 cm^2. For the same compound, the Body weight is on record as 129.1 ± 5.5 g in data set [2] (Day 1); 130.9 ± 10.4 g in data set [2] (Day 2); 133.2 ± 14.5 g in data set [2] (Day 3); 135.3 ± 13.6 g in data set [2] (Day 4); 144.9 ± 12.6 g in data set [2] (Day 5); 145.9 ± 13.3 g in data set [2] (Day 6). In data set [2] (Day 7), the Body weight amounted to 165.6 ± 12.1 g. In addition, the results for the inhibition in vivo at 30 mg/kg in data set [2] (setting [3]), in data set [2] (setting [4]) and in data set [2] (setting [5]) were 62.2%, 87.5% and 74.1%, respectively.

For the origin of these results see patent US20220372013A2, “PIPERIDINE-2,6-DIONE DERIVATIVES AND CROHN'S DISEASE TREATING” (Tianjin Hemay Pharmaceutical Sci-Tech Co., Ltd, priority 2016, published 2022).
